Source: ChEMBL document CHEMBL4052727, “Structure-activity relationship studies on thiaplidiaquinones A and B as novel inhibitors of Plasmodium falciparum and farnesyltransferase” (Bioorg Med Chem, 2017)
≈ marks a conversion by molar mass, not a printed value. Calls of active or inactive are those of the source. The calls are words filed in the database; no cut-off is given here.

Legend:
[1] = Inhibition of recombinant human farnesyltransferase using dansyl-GCVLS as substrate in presence of farnesyl pyrophosphate after 15 mins by fluorescence assay
[2] = Inhibition of Trypanosoma brucei recombinant farnesyltransferase using dansyl peptide containing GCAIM as substrate in presence of farnesyl pyrophosphate after 15 mins by fluorescence assay
[3] = system: Plasmodium falciparum; assay: Antiplasmodial activity against chloroquine-resistant erythrocyte stage of Plasmodium falciparum FcM29-Cameroon infected in human RBC assessed as reduction in [3H]hypoxanthine incorporation preincubated for 48 hrs followed by [3H]hypoxanthine addition measured after 24 hrs by liquid scintillation counting method; format: functional
[4] = system: Staphylococcus aureus; assay: Antibacterial activity against Staphylococcus aureus ATCC 25923 after 24 hrs by broth microdilution method; format: functional; settings: ATCC 25923, 24 h
[5] = system: Staphylococcus intermedius; assay: Antibacterial activity against Staphylococcus intermedius isolate 1051997 after 24 hrs by broth microdilution method; format: functional; settings: isolate 1051997, 24 h
[6] = system: Pseudomonas aeruginosa; assay: Antibacterial activity against Pseudomonas aeruginosa ATCC 27853 after 24 hrs by broth microdilution method; format: functional
[7] = system: Escherichia coli; assay: Antibacterial activity against Escherichia coli ATCC 25922 after 24 hrs by broth microdilution method; format: functional
[8] = system: Plasmodium falciparum; assay: Antiplasmodial activity against chloroquine-sensitive IEF stage of Plasmodium falciparum NF54 infected in human RBC assessed as reduction in [3H]hypoxanthine incorporation preincubated for 48 hrs followed by [3H]hypoxanthine addition measured after 24 hrs by liquid scintillation counting method; format: functional
[9] = system: L6; assay: Cytotoxicity against rat L6 cells after 72 hrs by Alamar blue assay; format: cell-based; settings: L6, 72 h
[10] = Selectivity index, ratio of IC50 for rat L6 cells to IC50 for chloroquine-sensitive IEF stage of Plasmodium falciparum NF54 infected in human RBC; format: toxicity; settings: read-out: Ratio IC50

SMILES | IC50 [1] | IC50 [2] | IC50 [3] | MIC [4] | MIC [5] | Activity [6] | Activity [7] | IC50 [8] | IC50 ([9]; read-out: IC50) | selectivity ratio [10] | IC50 [9]
CC(C)=CCC/C(C)=C/Cc1cc2c(cc1O)C1=C(C(=O)C3=C(NCCS3(=O)=O)C1=O)C(/C=C(\C)CCC=C(C)C)O2 (stereo not drawn) | 1220 nM | 3040 nM | > 17 µM | > 200 µM | > 200 µM | inactive | inactive | – | – | – | –
CC(C)=CCC/C(C)=C/Cc1cc(O)cc2c1OC(/C=C(\C)CCC=C(C)C)C1=C2C(=O)C2=C(NCCS2(=O)=O)C1=O (stereo not drawn) | 140 nM | 220 nM | 4.56 µM | > 200 µM | > 200 µM | inactive | inactive | – | – | – | –
CC(C)=CCC/C(C)=C/Cc1cc(O)cc2c1OC(/C=C(\C)CCC=C(C)C)C1=C2C(=O)C2=C(C1=O)S(=O)(=O)CCN2 (stereo not drawn) | 780 nM | 740 nM | > 17 µM | > 200 µM | > 200 µM | inactive | inactive | – | – | – | –
CSCC[C@H](NC(=O)c1ccc(NC[C@@H](N)CS)cc1-c1ccccc1)C(=O)O | – | 10 nM | – | – | – | – | – | – | – | – | –
CC(C)=CCC/C(C)=C/CC/C(C)=C/Cc1cc(O)cc2c1OC(/C=C(\C)CC/C=C(\C)CCC=C(C)C)C1=C2C(=O)C2=C(NCCS2(=O)=O)C1=O (stereo not drawn) | 1500 nM | 2900 nM | – | > 200 µM | > 200 µM | inactive | inactive | 2.9 µM | 16.7 µM | – | –
CN[C@@H]1[C@H](O[C@H]2[C@H](O[C@H]3[C@H](O)[C@@H](O)[C@H](N=C(N)N)[C@@H](O)[C@@H]3N=C(N)N)O[C@@H](C)[C@]2(O)C=O)O[C@@H](CO)[C@H](O)[C@H]1O [STREPTOMYCIN] | – | – | – | 21.5 µM (≈ 12.5 µg/mL) | 10.7 µM (≈ 6.22 µg/mL) | – | – | – | – | – | –
CC(C)=CCC/C(C)=C/CC/C(C)=C/Cc1cc(O)cc2c1OC(/C=C(\C)CC/C=C(\C)CCC=C(C)C)C1=C2C(=O)C2=C(C1=O)S(=O)(=O)CCN2 (stereo not drawn) | 170 nM | 350 nM | – | > 200 µM | > 200 µM | inactive | inactive | 4 µM | 30.6 µM | – | –
CC(C)=CCC/C(C)=C/CC/C(C)=C/Cc1cc2c(cc1O)C1=C(C(=O)C3=C(NCCS3(=O)=O)C1=O)C(/C=C(\C)CC/C=C(\C)CCC=C(C)C)O2 (stereo not drawn) | 450 nM | 1000 nM | – | > 200 µM | > 200 µM | inactive | inactive | 3.4 µM | 25.8 µM | – | –
CC(C)=CCc1cc2c(cc1O)C1=C(C(=O)C3=C(C1=O)S(=O)(=O)CCN3)C(C=C(C)C)O2 (stereo not drawn) | 3100 nM | 2300 nM | – | > 200 µM | > 200 µM | inactive | inactive | 0.29 µM | 0.4 µM | – | –
CC(C)=CCc1cc(O)cc2c1OC(C=C(C)C)C1=C2C(=O)C2=C(C1=O)S(=O)(=O)CCN2 (stereo not drawn) | 17300 nM | > 22000 nM | – | > 200 µM | > 200 µM | inactive | inactive | 8 µM | 12.8 µM | – | –
CC(C)=CCC/C(C)=C/Cc1cc2c(cc1O)C1=C(C(=O)C3=C(C1=O)S(=O)(=O)CCN3)C(/C=C(\C)CCC=C(C)C)O2 (stereo not drawn) | 54 nM | 98 nM | 4.39 µM | > 200 µM | > 200 µM | inactive | inactive | – | – | – | –
CC(C)=CCc1cc2c(cc1O)C1=C(C(=O)C3=C(NCCS3(=O)=O)C1=O)C(C=C(C)C)O2 (stereo not drawn) | > 22000 nM | > 22000 nM | – | > 200 µM | > 200 µM | inactive | inactive | 4.8 µM | 5.2 µM | – | –
CC(C)=CCC/C(C)=C/CC/C(C)=C/C1Oc2c(cc(O)c3c2-c2cc(O)ccc2OC3/C=C(\C)CC/C=C(\C)CCC=C(C)C)C2=C1C(=O)C=CC2=O (stereo not drawn) | 1000 nM | 1600 nM | – | > 200 µM | > 200 µM | inactive | inactive | 33.9 µM | 53.2 µM | – | –
CC(C)=CCC/C(C)=C/CC/C(C)=C/Cc1cc2c(cc1O)C1=C(C(=O)C3=C(C1=O)S(=O)(=O)CCN3)C(/C=C(\C)CC/C=C(\C)CCC=C(C)C)O2 (stereo not drawn) | 4700 nM | 5200 nM | – | > 200 µM | > 200 µM | inactive | inactive | 7.4 µM | 126 µM | 17 | –
COC1=CC(=O)C2=C(C1=O)c1cc(O)ccc1OC2/C=C(\C)CC/C=C(\C)CCC=C(C)C (stereo not drawn) | > 22300 nM | > 22300 nM | – | 25 µM (≈ 11.2 µg/mL) | 50 µM (≈ 22.4 µg/mL) | inactive | inactive | 20.4 µM | 34.3 µM | – | –
O=C(N[C@H](CO)[C@H](O)c1ccc([N+](=O)[O-])cc1)C(Cl)Cl [CHLORAMPHENICOL] | – | – | – | 1.5 to 3 µM (≈ 0.485 to 0.969 µg/mL) | 3 to 6 µM (≈ 0.969 to 1.94 µg/mL) | – | – | – | – | – | –
CC(C)=CCC/C(C)=C/CC/C(C)=C/C1Oc2ccc(O)cc2C2=C1C(=O)C=CC2=O (stereo not drawn) | 1700 nM | 3300 nM | – | 6.25 µM (≈ 2.62 µg/mL) | 3.12 µM (≈ 1.31 µg/mL) | inactive | inactive | 7.2 µM | 23.5 µM | – | –
CC(C)=CCc1cc(O)cc2c1OC(C=C(C)C)C1=C2C(=O)C2=C(NCCS2(=O)=O)C1=O (stereo not drawn) | 14700 nM | 19600 nM | – | > 200 µM | > 200 µM | inactive | inactive | 2 µM | 4.2 µM | – | –
COc1cc([C@@H]2c3cc4c(cc3[C@H](O)[C@H]3COC(=O)[C@H]23)OCO4)cc(OC)c1OC [PODOFILOX] | – | – | – | – | – | – | – | – | – | – | 0.012 µM
